From PubChem BioAssay AID328 (DTP/NCI, 2004)
“And” between values parts separate entries of the source, which are not always exact repeats. Identical values can stand only once. Inconclusive results and toxic doses are left out.

Tested on: BDF1 mice, P388 leukemia ip, median survival T/C
Test: NCI In Vivo Anticancer Drug Screen. Data for tumor model P388 Leukemia (intraperitoneal) in B6D2F1 (BDF1) mice
Settings: endpoint: median survival time, higher = longer survival
Summary of the method: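 Vehicle-dosed animals serve as the reference; survival of compound-dosed, tumour-implanted mice is divided by it.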

[1] = dose: 100.0 mg/kg/injection, schedule: Q01DX009 (ip), vehicle: Klucel (hydroxypropylcellulose) (HPC)
[2] = dose: 200.0 mg/kg/injection, schedule: Q01DX009 (ip), vehicle: Klucel (hydroxypropylcellulose) (HPC)
[3] = dose: 400.0 mg/kg/injection, schedule: Q01DX009 (ip), vehicle: Klucel (hydroxypropylcellulose) (HPC)
[4] = dose: 50.0 mg/kg/injection, schedule: Q01DX009 (ip), vehicle: saline with Tween-80
[5] = dose: 100.0 mg/kg/injection, schedule: Q01DX009 (ip), vehicle: saline with Tween-80
[6] = dose: 200.0 mg/kg/injection, schedule: Q01DX009 (ip), vehicle: saline with Tween-80
[7] = dose: 400.0 mg/kg/injection, schedule: Q01DX009 (ip), vehicle: saline with Tween-80
[8] = dose: 100.0 mg/kg/injection, schedule: Q04DX003 (ip), vehicle: saline with Tween-80
[9] = dose: 200.0 mg/kg/injection, schedule: Q04DX003 (ip), vehicle: saline with Tween-80
[10] = dose: 400.0 mg/kg/injection, schedule: Q04DX003 (ip), vehicle: saline with Tween-80
[11] = dose: 100.0 mg/kg/injection, schedule: Q04DX003 (ip), vehicle: saline
[12] = dose: 200.0 mg/kg/injection, schedule: Q04DX003 (ip), vehicle: saline

Cc1c[nH]c(=O)[nH]c1=O
T/C (dose: 390.0 mg/kg/injection, schedule: Q04DX003 (ip), vehicle: saline with Tween-80): 98 % of control
T/C (dose: 390.0 mg/kg/injection, schedule: Q## X003 (ip), vehicle: saline with Tween-80): 98 % of control
T/C (dose: 520.0 mg/kg/injection, schedule: Q04DX003 (ip), vehicle: saline with Tween-80): 93 % of control
T/C (dose: 520.0 mg/kg/injection, schedule: Q## X003 (ip), vehicle: saline with Tween-80): 93 % of control

CC1C(N2CCOCC2)CS1(=O)=O (stereo not given)
T/C [1]: 100 % of control
T/C [2]: 115 % of control
T/C [3]: 105 % of control

CCN(CC)CCCC(C)Nc1c2ccc(C)cc2nc2ccc(OC)cc12 (stereo not given)
T/C [4]: 123 % of control

CN(C)C=Nc1cc(Cl)c(Cl)cc1Cl
T/C (dose: 50.0 mg/kg/injection, schedule: Q01DX009 (ip), vehicle: saline): 100 % of control
T/C (dose: 100.0 mg/kg/injection, schedule: Q01DX009 (ip), vehicle: saline): 110 % of control
T/C (dose: 200.0 mg/kg/injection, schedule: Q01DX009 (ip), vehicle: saline): 111 % of control

CCCCCCC(NC(C)=O)C(C)=O (stereo not given)
T/C [4]: 104 % of control
T/C [5]: 101 % of control
T/C [6]: 101 % of control

CC(=O)OCC(=O)[C@@]1(O)CC[C@H]2[C@@H]3C[C@H](C)C4=CC(=O)CC[C@]4(C)[C@H]3[C@@H](O)C[C@@]21C
T/C [7]: 90 % of control

c1ccc2c3c(ccc2c1)Sc1ccc2ccccc2c1N3
T/C [5]: 90 % of control
T/C [8]: 104 % of control
T/C [6]: 90 % of control
T/C [9]: 90 % of control
T/C [7]: 90 % of control
T/C [10]: 90 % of control

O=C1OCCN1/N=C\c1ccccc1
T/C (dose: 100.0 mg/kg/injection, schedule: Q01DX001 (ip), vehicle: olive oil, sesame oil, peanut oil): 95 % of control
T/C (dose: 200.0 mg/kg/injection, schedule: Q01DX001 (ip), vehicle: olive oil, sesame oil, peanut oil): 104 % of control
T/C (dose: 400.0 mg/kg/injection, schedule: Q01DX001 (ip), vehicle: olive oil, sesame oil, peanut oil): 104 % of control

Cc1cc2nc(Cc3nc4cc(C)c(C)cc4[nH]3)[nH]c2cc1C
T/C [8]: 95 % of control
T/C [9]: 90 % of control
T/C [10]: 95 % of control

O=c1[nH]c2nc(Cl)c(Cl)nc2[nH]1
T/C (dose: 50.0 mg/kg/injection, schedule: Q04DX003 (ip), vehicle: saline): 113 % of control
T/C [11]: 106 % of control
T/C [12]: 111 % of control

O=C(/C=C/c1ccc2c(c1)OCO2)c1ccc([N+](=O)[O-])cc1
T/C (dose: 6.25 mg/kg/injection, schedule: Q04DX003 (ip), vehicle: Klucel (hydroxypropylcellulose) (HPC)): 100 % of control
T/C (dose: 12.5 mg/kg/injection, schedule: Q04DX003 (ip), vehicle: Klucel (hydroxypropylcellulose) (HPC)): 100 % of control
T/C (dose: 25.0 mg/kg/injection, schedule: Q04DX003 (ip), vehicle: Klucel (hydroxypropylcellulose) (HPC)): 100 % of control
T/C (dose: 50.0 mg/kg/injection, schedule: Q04DX003 (ip), vehicle: Klucel (hydroxypropylcellulose) (HPC)): 86 % of control
T/C (dose: 100.0 mg/kg/injection, schedule: Q01DX001 (ip), vehicle: Klucel (hydroxypropylcellulose) (HPC)): 105 % of control
T/C (dose: 200.0 mg/kg/injection, schedule: Q01DX001 (ip), vehicle: Klucel (hydroxypropylcellulose) (HPC)): 90 % of control
T/C (dose: 400.0 mg/kg/injection, schedule: Q01DX001 (ip), vehicle: Klucel (hydroxypropylcellulose) (HPC)): 92 % of control

CCCC(=O)Nc1ccc(NS(C)(=O)=O)cc1OC
T/C [1]: 95 % of control
T/C (dose: 100.0 mg/kg/injection, schedule: Q04DX003 (ip), vehicle: Klucel (hydroxypropylcellulose) (HPC)): 100 % of control
T/C [2]: 90 % of control
T/C (dose: 200.0 mg/kg/injection, schedule: Q04DX003 (ip), vehicle: Klucel (hydroxypropylcellulose) (HPC)): 95 % of control
T/C [3]: 90 % of control

CCO/C=C1\SC(=S)N(c2ccc(C(=O)O)cc2)C1=O
T/C (dose: 11.0 mg/kg/injection, schedule: Q01DX009 (ip), vehicle: saline): 104 % of control
T/C (dose: 25.0 mg/kg/injection, schedule: Q01DX009 (ip), vehicle: saline): 122 % of control
T/C (dose: 37.5 mg/kg/injection, schedule: Q01DX009 (ip), vehicle: saline): 100 % of control
T/C [5]: 116 % of control

COC(=O)C(Sc1ccc(Cl)cc1)C1SC(=S)N(Cc2ccccc2)C1=O (stereo not given)
T/C [4]: 104 % of control
T/C [5]: 118 % of control
T/C [6]: 109 % of control

CCC1CCCCN1C(=S)N/N=C(\C)c1ccccn1 (stereo not given)
T/C (dose: 3.12 mg/kg/injection, schedule: Q04DX003 (ip), vehicle: saline with Tween-80): 102 % of control
T/C (dose: 12.5 mg/kg/injection, schedule: Q04DX003 (ip), vehicle: saline with Tween-80): 114 % of control

O=[N+]([O-])c1ccc2[nH]c3c(c2c1)CSCC3
T/C [4]: 100 % of control
T/C [1]: 100 % of control
T/C [5]: 96 % of control
T/C [8]: 109 % of control
T/C [2]: 90 % of control
T/C [9]: 107 % of control
T/C [3]: 86 % of control
T/C [7]: 91 % of control
T/C [10]: 110 % of control

CC(=O)CC(C)=O.CC(=O)CC(C)=O.CC(=O)CC(C)=O.[In]
T/C [11]: 109 % of control
T/C [12]: 104 % of control

O=C1C(Br)=Cc2cccc3cccc1c23
T/C (dose: 25.0 mg/kg/injection, schedule: Q01DX009 (ip), vehicle: saline with Tween-80): 111 % of control
T/C [4]: 105 % of control
T/C [5]: 107 % of control
T/C [8]: 95 % of control
T/C [6]: 230 % of control and 107 % of control
T/C [9]: 104 % of control
T/C [7]: 100 % of control
T/C [10]: 104 % of control
